Assay results: publication PMC12340723, “Validation of Hv1 channel functions in BV2 microglial cells using small molecule modulators” (Frontiers in Cellular Neuroscience, 2025)

Experiments:
[1] = target: T1, Voltage-gated proton channel Hv1 (Mus musculus, UniProt Q3U2S8); assay: whole-cell patch clamp at +[…] mV in BV2 cells (activator); BCECF pH-recovery assay, effect abolished by Hv1 shRNA; format: cell-based
T1 construct: gene Hvcn1; endogenous Hv1 in BV2 microglial cells
T1 sequence (Q3U2S8 1-269): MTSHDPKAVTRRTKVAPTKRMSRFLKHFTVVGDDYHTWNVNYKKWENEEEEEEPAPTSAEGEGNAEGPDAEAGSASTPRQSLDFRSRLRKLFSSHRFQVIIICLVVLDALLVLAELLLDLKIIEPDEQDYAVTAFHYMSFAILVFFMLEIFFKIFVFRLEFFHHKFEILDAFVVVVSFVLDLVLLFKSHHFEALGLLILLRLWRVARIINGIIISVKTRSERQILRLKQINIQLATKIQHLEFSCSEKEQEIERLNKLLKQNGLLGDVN

[2] = target: T1, Voltage-gated proton channel Hv1; assay: whole-cell patch clamp at +[…] mV in BV2 cells; BCECF pH-recovery assay, effect abolished by Hv1 shRNA; format: cell-based

| Structure (SMILES) | EC50 [1] | IC50 [2] |
| --- | --- | --- |
| O=C(CC1Sc2ccccc2NC1=O)Nc1ccccc1Cl (centres unmarked) [S-023-0515] | 8.41 ± 1.9 µM | – |
| O=C(CC1Sc2ccccc2NC1=O)Nc1ccc(Cl)cc1 (centres unmarked) [YHV98-4] | – | 2.6 ± 1.1 µM |
